Experimental data reported in US20150218514A1, “PROMOTER OF DIFFERENTIATION FROM HEPATIC PROGENITOR CELL INTO HEPATIC CELL, AND USE THEREOF” (NATIONAL CANCER CENTER, priority 2012, published 2015).

Legend:
[1] = tested on: Mouse hepatic progenitor cells; test: Expression level of hepatocyte markers after differentiation induction of mouse hepatic progenitor cells (real-time PCR); format: cell-based; conditions: for expression level of Cyp17a1 / expression level of G6pc / expression level of Tat / expression level of albumin: 100 nM siRNA introduced on day 2, day 6 of culture, compared to control siRNA (siCtrl)
Description: To a basal medium for hepatocyte were added 5 μg/mL of insulin (Sigma-Aldrich Corporation), 25 ng/mL of epidermal growth factor (EGF) (Sigma-Aldrich Corporation), 25 ng/mL of hepatocyte growth factor (HGF) (Peprotech), 12.5 ng/mL of oncostatin M (Sigma-Aldrich Corporation), 5×10^−7M hydrocortisone 21-hemisuccinate sodium salt (Sigma-Aldrich Corporation) and 10^−7 M dexamethasone (Sigma-Aldrich Corporation) to prepare the medium.
The hepatic parenchymal cells were diluted with HEPES buffer added with 2% fetal bovine serum to prepare a 10^7 cells/100 μL cell suspension, which was transferred into a 5 mL round-bottom tube. A mouse FcR blocking antibody in EasySep Mouse Biotin Positive Selection Kit ([…] Technologies Inc) was added at 1 μL per 10^7 cells, and the mixture was admixed by tapping the tube. Biotin-labeled anti-E-cadherin antibody (eBioscience) was added at 2-4 μL per 10^7 cells, and the mixture was left standing at room temperature for 15 min while stirring the tube every 2-3 minutes. Biotin Selection Cocktail in EasySep Mouse Biotin Positive Selection Kit was added at 10 μL per 10^7 cells, and the mixture was left standing at room temperature for 15 min with occasional stirring. Magnetic particles in EasySep Mouse Biotin Positive Selection Kit were added at 5 μL per 10^7 cells, and the mixture was stirred and left standing at room temperature for 10 min. To the cell suspension was added a medium for cell isolation, and the volume was adjusted to 2.5 mL. The mixture was suspended with a 2 mL plastic pipette, and the tube was placed in an exclusive magnet ([…] Technologies Inc.) and left standing at room temperature for 10 min. The exclusive magnet containing the tube was reversed for 3 sec, and a non-hepatic progenitor cell fraction was removed (purification operation: first time). The tube was taken out from the exclusive magnet, 2.5 mL of the medium for cell isolation was added, and a purification operation was performed again (purification operation: second time). Furthermore, 2.5 mL of the medium for cell isolation was added, and a purification operation was performed for the third time (purification operation: third time). The cells remaining in the tube are the hepatic progenitor cells.
Total RNA was extracted from cultured cells, liver cancer cell lines, and mouse and human normal hepatic tissues by using miRNeasy Mini Kit (QUIAGEN). The total RNA was quantified by NanoDrop 1000 spectrophotometer (Thermo Fisher Scientific K.K.). The hepatic tissues recovered from mouse were placed in ice-cooled phosphate buffer and disrupted before extraction of RNA. Red blood cells were lysed in Red Blood Cell Lysis Buffer (Sigma-Aldrich Corporation).
(§1) RNA was quantified by the real-time PCR method using 7300 real-time PCR system (Applied Biosystems) and TaqMan MicroRNA Assays (Applied Biosystems). The miRNA expression was standardized at 6NU6B level. For quantification of messenger RNA, total RNA sample was treated with DNase (TURBO DNA-free kit: Ambion Inc.), and cDNA was synthesized from 1 μg of total RNA by using reverse transcriptase (SuperScript III Reverse Transcriptase: Ambion Inc.). For quantification, SYBR Green (PlatinumSYBR Green quantitative PCR SuperMix UDG: Invitrogen Corporation) was used. The reaction for real-time PCR was performed at 95° C., 2 min, 40 cycles (95° C. for 15 sec, 60° C. for 30 sec). The cDNA expression level was standardized by GAPDH.

[2] = tested on: Dnmt-1; test: Dnmt-1 expression level after differentiation induction of mouse hepatic progenitor cells (real-time PCR); format: cell-based; conditions: 100 nM siRNA; day 6 of culture; compared to control siRNA (siCtrl)
Description: as §1, with “GAPDH. […]” for “GAPDH.”
Mouse hepatic progenitor cells were plated at 4×10^4 cells/cm^2 in a 35 mm cell culture dish coated with type I collagen, […], after confluence (after day 4 of culture), the cells were cultured in the medium for hepatic progenitor cells free of epidermal growth factor (EGF) and fetal bovine serum. […] Total RNA was extracted, and Dnmt-1 was quantified by the real-time PCR method. […]

[3] = tested on: Hepatoblastoma HepG2 cells; test: Morphology of HepG2 cells cultured with substance that inhibits DNA methylation caused by Dnmt-1; format: cell-based, human; conditions: 2.5 μM; day 14 of culture
Description: (§2) Hepatoblastoma HepG2 cells (American Type Culture Collection: ATCC) were plated on a 35 mm cell culture dish at 7×10^5 cells, and cultured in DMEM (Invitrogen Corporation) added with 100 IU/mL penicillin-100 μg/mL streptomycin solution (Invitrogen Corporation), 10% fetal bovine serum (Thermo Fisher Scientific K.K.), and a substance that inhibits DNA methylation (5-aza-2′-deoxycytidine: 5-aza (decitabine): 2.5 μM). The medium was exchanged every day.

[4] = non-patent document 12; cited from earlier work
[5] = tested on: HepG2 cells; test: PAS staining of HepG2 cells (glycogen storage capacity); format: cell-based, human; conditions: 2.5 μM; culture for 14 days; compared to control without inhibitor
Description: as §2, with “HepG2” for “Hepatoblastoma HepG2”, “(ATCC)” for “(American Type Culture Collection: ATCC)”

[6] = tested on: HepG2 cells; conditions: HepG2 cells treated for 2 days; non-patent document 8; cited from earlier work

Compound	expression of albumin ([1]; RG108 20 or 100 μM in medium from day 2, day 7 of culture, compared to control)	effect of promoting differentiation into a hepatocyte ([1]; among the substances that inhibit DNA methylation)	expression of Dnmt-1 [2]	expression level of Cyp17a1 [1]	expression level of G6pc [1]	expression level of Tat [1]	expression level of albumin [1]	cell morphology [3]	apoptosis [4]	cytotoxicity [4]	glycogen storage capacity (PAS staining) [5]	mRNA level of CYP gene [6]
O=C(O)C(Cc1c[nH]c2ccccc12)N1C(=O)c2ccccc2C1=O (centres unmarked) [RG108]	high level	high effect										
siDnmt-1b: double stranded RNA, sense strand SEQ ID NO: 11 and antisense strand SEQ ID NO: 12; siRNA that suppresses expression of Dnmt-1 (sense CAACGGAUCCUAUCACACUTT; antisense AGUGUGAUAGGAUCCGUUGTA; chemistry not given here)			suppressed	high expression levels	high expression levels	high expression levels	high expression levels					
siDnmt-1a: double stranded RNA, sense strand SEQ ID NO: 9 and antisense strand SEQ ID NO: 10; siRNA that suppresses expression of Dnmt-1 (sense GGUAGAGAGUUACGACGAATT; antisense UUCGUCGUAACUCUCUACCTG; chemistry not given here)			suppressed	high expression levels	high expression levels	high expression levels	high expression levels					
Nc1ncn([C@H]2C[C@H](O)[C@@H](CO)O2)c(=O)n1 [5-aza-2′-deoxycytidine]								morphology specific to mature hepatocyte (multiple nuclei, clear cell boundary)	induce apoptosis	high cytotoxicity	high glycogen storage capacity	increases
